Measured values published in PubChem BioAssay AID330 (DTP/NCI, 2004).
“And” between values parts separate entries of the source, which are not always exact repeats. Equal values may be shown once. Toxic doses and inconclusive results are not listed. The calls were made as follows: active = survival T/C of 150% or more; inactive = T/C below 125% in these data.

System: P388 leukemia ip, CD2F1 mice, survival T/C
Experiment: NCI In Vivo Anticancer Drug Screen. Data for tumor model P388 Leukemia (intraperitoneal) in CD2F1 (CDF1) mice
Conditions: endpoint: median survival time, higher = longer survival
How it was run: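 Mice carrying the transplanted tumor received test compound or vehicle. Survival was recorded in each group, and the value is the treated-group measurement divided by that of the vehicle-treated control group.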

[1] = dose: 100.0 mg/kg/injection, schedule: Q04DX003 (ip), vehicle: saline
[2] = dose: 200.0 mg/kg/injection, schedule: Q04DX003 (ip), vehicle: saline
[3] = dose: 400.0 mg/kg/injection, schedule: Q04DX003 (ip), vehicle: saline
[4] = dose: 6.25 mg/kg/injection, schedule: Q01DX005 (ip), vehicle: saline with Tween-80
[5] = dose: 12.5 mg/kg/injection, schedule: Q01DX005 (ip), vehicle: saline with Tween-80
[6] = dose: 25.0 mg/kg/injection, schedule: Q01DX005 (ip), vehicle: saline with Tween-80
[7] = dose: 50.0 mg/kg/injection, schedule: Q01DX005 (ip), vehicle: saline with Tween-80
[8] = dose: 100.0 mg/kg/injection, schedule: Q01DX005 (ip), vehicle: saline with Tween-80
[9] = dose: 12.5 mg/kg/injection, schedule: Q01DX009 (ip), vehicle: saline
[10] = dose: 25.0 mg/kg/injection, schedule: Q01DX009 (ip), vehicle: saline
[11] = dose: 50.0 mg/kg/injection, schedule: Q01DX009 (ip), vehicle: saline
[12] = dose: 200.0 mg/kg/injection, schedule: Q01DX005 (ip), vehicle: saline with Tween-80
[13] = dose: 6.25 mg/kg/injection, schedule: Q01DX009 (ip), vehicle: saline
[14] = dose: 100.0 mg/kg/injection, schedule: Q01DX009 (ip), vehicle: saline with Tween-80
[15] = dose: 200.0 mg/kg/injection, schedule: Q01DX009 (ip), vehicle: saline with Tween-80
[16] = dose: 100.0 mg/kg/injection, schedule: Q01DX009 (ip), vehicle: saline

Measured: T/C

CN(C)C(=S)c1ccccc1NS(=O)(=O)c1ccccc1
inactive: [1] 106 % of control | [2] 100 % of control | [3] 97 % of control

CCS(=O)(=O)c1ncnc2nc[nH]c12
inactive: dose: 50.0 mg/kg/injection, schedule: Q01DX005 (ip), vehicle: Klucel (hydroxypropylcellulose) (HPC) 100 % of control | dose: 100.0 mg/kg/injection, schedule: Q01DX005 (ip), vehicle: Klucel (hydroxypropylcellulose) (HPC) 102 % of control | dose: 200.0 mg/kg/injection, schedule: Q01DX005 (ip), vehicle: Klucel (hydroxypropylcellulose) (HPC) 100 % of control

CCN(C(=S)NNC(=S)N/N=C(\C)c1ccccn1)c1ccccc1
inactive: [4] 94 % of control | [5] 107 % of control | [6] 109 % of control | [7] 112 % of control | [8] 120 % of control

O=[N+]([O-])c1ccc(O)c(O)c1
inactive: [9] 100 % of control | [10] 108 % of control | [11] 98 % of control

FC(F)(F)C1=C(C(F)(F)F)SP(Cl)(c2ccccc2)(c2ccccc2)S1
inactive: dose: 50.0 mg/kg/injection, schedule: Q04DX003 (ip), vehicle: other 107 % of control | dose: 100.0 mg/kg/injection, schedule: Q04DX003 (ip), vehicle: other 100 % of control | dose: 200.0 mg/kg/injection, schedule: Q04DX003 (ip), vehicle: other 93 % of control

COc1c2occc2c(N=Cc2c[nH]c3ccccc23)c2ccc(=O)oc12
inactive: [7] 92 % of control | [8] 93 % of control | [12] 86 % of control

CC1=C(CO)C(=O)OC(C(C)C2CCC3C4CC5OC56C(O)C(N5CC5)=CC(=O)C6(C)C4CCC23C)C1 (stereo not drawn)
inactive: dose: 5.0 mg/kg/injection, schedule: Q01DX005 (ip), vehicle: Klucel (hydroxypropylcellulose) (HPC) 110 % of control | dose: 10.0 mg/kg/injection, schedule: Q01DX005 (ip), vehicle: Klucel (hydroxypropylcellulose) (HPC) 120 % of control and 91 % of control and 97 % of control | dose: 20.0 mg/kg/injection, schedule: Q01DX005 (ip), vehicle: Klucel (hydroxypropylcellulose) (HPC) 103 % of control and 104 % of control and 123 % of control | dose: 40.0 mg/kg/injection, schedule: Q01DX005 (ip), vehicle: Klucel (hydroxypropylcellulose) (HPC) 103 % of control and 106 % of control and 123 % of control | dose: 80.0 mg/kg/injection, schedule: Q01DX005 (ip), vehicle: Klucel (hydroxypropylcellulose) (HPC) 108 % of control and 109 % of control | dose: 160.0 mg/kg/injection, schedule: Q01DX005 (ip), vehicle: Klucel (hydroxypropylcellulose) (HPC) 105 % of control

O=c1[nH]c2ccccc2c2cc3ccccc3cc12
inactive: [13] 94 % of control | [9] 86 % of control | [10] 99 % of control | [11] 96 % of control | [14] 89 % of control | [15] 89 % of control | dose: 400.0 mg/kg/injection, schedule: Q01DX009 (ip), vehicle: saline with Tween-80 89 % of control

Cc1ccc2c(c1O)NC(O)c1cccn1C2=O (stereo not drawn)
inactive: dose: 0.1 mg/kg/injection, schedule: Q01DX005 (ip), vehicle: water 99 % of control | dose: 0.2 mg/kg/injection, schedule: Q01DX005 (ip), vehicle: water 111 % of control | dose: 0.4 mg/kg/injection, schedule: Q01DX005 (ip), vehicle: water 100 % of control | dose: 0.8 mg/kg/injection, schedule: Q01DX005 (ip), vehicle: water 98 % of control | dose: 1.6 mg/kg/injection, schedule: Q01DX005 (ip), vehicle: water 96 % of control | dose: 5.0 mg/kg/injection, schedule: Q01DX005 (ip), vehicle: distilled water + Tween-80 92 % of control | dose: 10.0 mg/kg/injection, schedule: Q01DX005 (ip), vehicle: distilled water + Tween-80 98 % of control | dose: 20.0 mg/kg/injection, schedule: Q01DX005 (ip), vehicle: distilled water + Tween-80 91 % of control | dose: 80.0 mg/kg/injection, schedule: Q01DX005 (ip), vehicle: distilled water + Tween-80 86 % of control

CCCCN(CCCC)CC(O)c1c(C)c2ccccc2c2ccccc12 (stereo not drawn)
inactive: dose: 9.0 mg/kg/injection, schedule: Q01DX009 (ip), vehicle: saline with Tween-80 100 % of control | dose: 18.0 mg/kg/injection, schedule: Q01DX009 (ip), vehicle: saline with Tween-80 100 % of control | dose: 36.0 mg/kg/injection, schedule: Q01DX009 (ip), vehicle: saline with Tween-80 100 % of control

COc1cc(CNC(=O)CCCC/C=C\C(C)C)ccc1OC(=O)/C=C/c1ccccc1
inactive: dose: 1.55 mg/kg/injection, schedule: Q01DX009 (ip), vehicle: Klucel (hydroxypropylcellulose) (HPC) 100 % of control | dose: 3.1 mg/kg/injection, schedule: Q01DX009 (ip), vehicle: Klucel (hydroxypropylcellulose) (HPC) 106 % of control | dose: 6.2 mg/kg/injection, schedule: Q01DX009 (ip), vehicle: Klucel (hydroxypropylcellulose) (HPC) 103 % of control

CNS(=O)(=O)Cc1ccccc1
inactive: [11] 107 % of control | [16] 107 % of control | dose: 200.0 mg/kg/injection, schedule: Q01DX009 (ip), vehicle: saline 100 % of control | dose: 400.0 mg/kg/injection, schedule: Q01DX009 (ip), vehicle: saline 108 % of control

CCCCOC1OCN(CCCN(C)C)CC1(C)C (stereo not drawn)
inactive: dose: 50.0 mg/kg/injection, schedule: Q01DX009 (ip), vehicle: saline with Tween-80 108 % of control | [14] 122 % of control | [15] 122 % of control

O=C1CCSC(=S)N1c1ccc(C(F)(F)F)cc1
inactive: dose: 50.0 mg/kg/injection, schedule: Q01DX009 (ip), vehicle: suspension in saline 90 % of control | dose: 100.0 mg/kg/injection, schedule: Q01DX009 (ip), vehicle: suspension in saline 97 % of control | dose: 200.0 mg/kg/injection, schedule: Q01DX009 (ip), vehicle: suspension in saline 94 % of control

C/C(=C/c1cc(Br)c(O)c(Br)c1)[N+](=O)[O-]
inactive: [13] 100 % of control | [9] 110 % of control and 90 % of control | dose: 12.5 mg/kg/injection, schedule: Q04DX003 (ip), vehicle: saline 106 % of control | [10] 109 % of control and 90 % of control | dose: 25.0 mg/kg/injection, schedule: Q04DX003 (ip), vehicle: saline 100 % of control | dose: 50.0 mg/kg/injection, schedule: Q04DX003 (ip), vehicle: saline 100 % of control | [16] 90 % of control | dose: 100.0 mg/kg/injection, schedule: Q04DX003 (ip), vehicle: saline with Tween-80 98 % of control

O=C(c1ccc(Cl)cc1)c1cnc2nc(-c3ccccc3)c(-c3ccccc3)nn12
inactive: [4] 97 % of control | [5] 98 % of control | [6] 97 % of control | [7] 103 % of control | [8] 113 % of control | [12] 115 % of control

O=C(Nc1ccc(Cl)c(Cl)c1)OCc1cccnc1
inactive: dose: 50.0 mg/kg/injection, schedule: Q01DX009 (ip), vehicle: Klucel (hydroxypropylcellulose) (HPC) 95 % of control | dose: 100.0 mg/kg/injection, schedule: Q01DX009 (ip), vehicle: Klucel (hydroxypropylcellulose) (HPC) 97 % of control | dose: 200.0 mg/kg/injection, schedule: Q01DX009 (ip), vehicle: Klucel (hydroxypropylcellulose) (HPC) 95 % of control

CCOC(=O)CN1CCC(C(=O)OC)CC1
inactive: [1] 100 % of control | [2] 100 % of control | [3] 100 % of control
